# Test results taken from USRE42072E1, “Compositions and methods for enhancing receptor-mediated cellular internalization” (The Penn State Research Foundation, priority 1996, dated 2011).
# Read-outs that look alike come from different tables or passages of the source.
# Columns and labels:
# [1] = tested on: luteinizing hormone (LH); assay: Chronic daily vaginal dosing of DES in gel to suppress LH secretion, ovariectomized sheep without steroids; type: in vivo; details: no steroid
# Method: The objective was to determine if chronic vaginal dosing with 200 μg of deslorelin (“DES”) in gel would be able to suppress secretion of LH. […] doses of DES will result in the down-regulation of the anterior pituitary gland in sheep. Ovariectomized sheep were used for the study, since they secrete high levels of LH in the-absence of ovarian steroids. The sheep were dosed daily with DES in 5 mL of gel, or gel only for 17 days. A single blood sample was collected by jugular venipuncture. Plasma was collected and assayed for LH.
# [2] = tested on: luteinizing hormone (LH); assay: LH release after DES in gel in ewes given systemic depot progesterone and ear implants of synthetic progestogen; type: in vivo, sheep
# Method: An attempt was made to treat ewes with progesterone using the systemic administration of a depot form of progesterone and ear implants of a synthetic progestogen. Pituitary release of LH was poor following the vaginal administration of DES in gel. When LH release in these animals was not observed, the gel from the same preparations used vaginally was injected subcutaneously. LH release was then obtained, confirming that the DES/gel preparations contained biologically active material. Given the consistent responses obtained in earlier experiments and those obtained more recently using the CIDR delivery system, it was concluded that the progesterone (generally) should be applied directly to the vagina in order to achieve sufficient local concentrations. Given that luteal phase sheep also respond well, systemic administration of greater amounts of progesterone than used here, in formulations that will maintain consistently high concentrations in the blood, should also work.
# [3] = tested on: luteinizing hormone (LH); type: in vivo, sheep
# Method: Ewes (n=12) were treated with progesterone using a vaginal CIDR device. In addition, six sheep received a 15 mm silastic implant of estradiol. Five days later, all sheep were treated vaginally with 200 μg of DES in gel. Blood samples were taken every 30 minutes for 2 hours following treatment and then every 60 minutes for an additional four hours.
# [4] = tested on: luteinizing hormone (LH); assay: CIDR device control study: LH release after vaginal DES; type: in vivo, sheep
# Method: Another study provided information about the role of the silastic CIDR device itself in the delivery process. The study was based on concern that the CIDR might be damaging the vaginal mucosa, allowing for GnRH transport by a non-selective mechanism. CIDR devices were inserted into six ewes. Five days later, all ewes were treated vaginally with DES. […] After the initial dosing, three ewes were treated with DES and three with gel alone every day for 18 days. At the end of the 18-day treatment period, all ewes were again treated with DES in gel. […] Consequently, by the time the second DES administration was given, the CIDR devices had been in place for approximately 24 days. The ewes therefore were no longer receiving adequate amounts of progesterone locally to maintain the vaginal transport system.
# [5] = tested on: luteinizing hormone (LH); assay: Daily vaginal DES in progesterone-primed ovariectomized ewes: basal LH and pituitary responsiveness; type: in vivo, sheep
# Method: The objective of this study was to determine if daily vaginal administration of DES in progesterone-primed ewes would cause a reduction in basal LH secretion and loss of pituitary responsiveness of GnRH. Six ovariectomized ewes were used for the study. Vaginal CIDR devices containing progesterone were inserted. Twenty-four hours later, ewes were dosed daily with 200 μg of DES (GnRH agonist) in 5 mL of gel. Each day, blood samples were collected at 0 and 120 minutes post-treatment. These times were selected in order to evaluate changes in basal secretion of LH (time 0) and the peak LH response following GnRH administration (time 120).
# [6] = Bioavailability of peptides after vaginal administration to sheep, relative to intravenous injection; details: female, sheep, in vivo
# Method: (§1) First, a peptide that undergoes receptor-mediated transport across the vaginal epithelium was identified by studying the permeation of peptides of varying molecular weight in a sheep model. Peptides were delivered vaginally to sheep in 5 ml of aqueous or methocel solutions with typical peptide concentrations of 10-40 μg/ml. A group of 18 intact ewes were utilized for these experiments. For each study, sheep were randomly assigned to a treatment group. In GnRH studies where each animal received all possible treatment combinations, each animal was assigned to an initial treatment group at random and subsequently randomly to each of the remaining treatment groups. A minimum of 5 days (typically 10 or more days) was allowed between experiments on a given animal, to provide sufficient time for complete recovery of pituitary responsiveness to the highest doses of the GnRH agonist used A 16G 150 mm jugular catheter (Abbocath-T, Abbott Laboratories, Chicago, Ill.) was inserted and blood samples collected at 0, 30, 60, 90, 120, 180, 240, 360, 480 and 1440 min. after treatment. Luteinizing hormone (LH) levels were determined.
# LHRH analog was placed in methyl cellulose solutions (“methocels”) of varying apparent viscosity. […] First, 200 μg of leuprolide acetate in 5 ml of aqueous solutions with melhocel weight concentrations varying between 0% and 3.0% were vaginally administered.
# The enhanced bioavailability of LHRH also coincides with a longer-term release into the systemic circulation at the optimal methocel concentrations. […] To test this hypothesis, the efficacy of a second, physically cross-linked hydrogel that was believed would not enhance endocytosis, but whose apparent viscosity (in the range of hydrogel concentrations 0.0-5.5%) was similar to that of the methocels (in the range 0.0-3.0%) was examined.
# [7] = tested on: serum cortisol; assay: Serum cortisol response to iv injection and vaginal administration of vasopressin; type: in vivo, sheep
# Method: FIGS. 1a and 1b are graphs showing serum responses to iv injection and vacinal administration of vasopressin and leuprolide acetate. […] Vasopressin was injected intravenously ([…]) through a jugular catheter. The peptide was delivered vaginally in 5 ml of aqueous solution (200 g does). Standard errors are based on n=6. […] LHRH analog was injected intravenously ([…]) into through a jugular catheter. The peptide was delivered vaginally in 5 ml of aqueous solution (200 g dose). Standard errors are based on n=6.
# as §1
# To determine whether membrane damage might explain the results shown in FIG. 2, vasopressin was vaginally administered in methocel solutions of 1.5 and 1.75%.
smiles,measurement,setting,value
"CCNC(=O)[C@@H]1CCCN1C(=O)[C@H](CCCN=C(N)N)NC(=O)[C@H](CC(C)C)NC(=O)[C@@H](Cc1c[nH]c2ccccc12)NC(=O)[C@H](Cc1ccc(O)cc1)NC(=O)[C@H](CO)NC(=O)[C@H](Cc1c[nH]c2ccccc12)NC(=O)[C@H](Cc1cnc[nH]1)NC(=O)[C@@H]1CCC(=O)N1 [DES, deslorelin]","average LH concentrations, DES versus control (gel only) group",[1]; 200 μg daily vaginally in 5 mL gel for 17 days,no differences
same,LH secretion,[1]; between days 6 and 12 of daily vaginal dosing,slightly suppressed
same,LH release,[2]; same gel preparation injected subcutaneously,obtained
same,pituitary release of LH,"[2]; vaginal administration in gel, systemic depot progesterone and progestogen ear implants",poor
same,ewes that responded with a robust discharge of LH,"[3]; 200 μg vaginally in gel, 5 days after progesterone CIDR with or without estradiol implant, n=12",All ewes
same,time of peak LH,[3]; ewes treated only with progesterone,120 min
same,time of peak LH,[3]; ewes treated with progesterone and estradiol,240 min
same,lag time between vaginal administration and transport of sufficient amounts into the blood to cause LH release,[3]; in vivo,70 to 80 min
same,ewes that displayed a robust release of LH,"[4]; DES in gel at end of 18-day period, CIDR in place approximately 24 days",none
same,ewes with a robust release of LH,[4]; vaginal treatment five days after CIDR insertion,Five of the six
same,ewes in which the change in LH between 0 and 120 minutes was greatest on the first day of administration,"[5]; 200 μg daily vaginally in 5 mL gel, progesterone-primed ovariectomized ewes",3 of 6
same,ewes that transport GnRH,[5]; after four days of exposure to progesterone,~100%
same,ewes with significant transport,[5]; after only 24 hours of exposure to progesterone,Approximately 50%
same,basal LH,"[5]; progesterone-primed ewes, daily treatment, time 0 sample (FIG. 8)",significant decreases
same,pituitary responsiveness with continued daily treatment,"[5]; progesterone-primed ewes, first-treatment LH differential set to 100% (FIG. 7)",significantly reduced
same,time over which the change in LH secretion continued to increase after initiation of treatment,[5]; the two remaining animals of six,5 to 7 days
same,pituitary responsiveness once the maximum response was achieved,[5]; the two remaining animals of six (Ewe 9),rapidly declined
CC(C)C[C@H](NC(=O)[C@H](CCCCN)NC(=O)CNC(=O)[C@H](CC(C)C)NC(=O)[C@@H](NC(=O)[C@@H]1CSSC[C@H](N)C(=O)N[C@@H](CO)C(=O)N[C@@H](CC(N)=O)C(=O)N[C@@H](CC(C)C)C(=O)N[C@@H](CO)C(=O)N[C@@H]([C@@H](C)O)C(=O)N1)C(C)C)C(=O)N[C@@H](CO)C(=O)N[C@@H](CCC(N)=O)C(=O)N[C@@H](CCC(=O)O)C(=O)N[C@@H](CC(C)C)C(=O)N[C@@H](Cc1c[nH]cn1)C(=O)N[C@@H](CCCCN)C(=O)N[C@@H](CC(C)C)C(=O)N[C@@H](CCC(N)=O)C(=O)N[C@H](C(=O)N[C@@H](Cc1ccc(O)cc1)C(=O)N1CCC[C@H]1C(=O)N[C@@H](CCCNC(=N)N)C(=O)N[C@H](C(=O)N[C@@H](CC(N)=O)C(=O)N[C@H](C(=O)NCC(=O)N[C@@H](CO)C(=O)NCC(=O)N[C@H](C(=O)N1CCC[C@H]1C(N)=O)[C@@H](C)O)[C@@H](C)O)[C@@H](C)O)[C@@H](C)O [salmon calcitonin],bioavailability,[6],< 0.1%
NC(=O)CC[C@@H]1NC(=O)[C@H](Cc2ccccc2)NC(=O)[C@H](Cc2ccc(O)cc2)NC(=O)[C@@H](N)CSSC[C@@H](C(=O)N2CCC[C@H]2C(=O)N[C@@H](CCCN=C(N)N)C(=O)NCC(N)=O)NC(=O)[C@H](CC(N)=O)NC1=O [vasopressin],bioavailability,"[6]; 200 μg, vaginal administration in an aqueous buffer, leuprolide value based on biological response, read-out: bioavailability",< 0.1%
same,systemic cortisol levels,"[7]; intravenous injection, within the first hour following treatment",high systemic cortisol levels
same,changes in concentrations of cortisol,[7]; vaginal administration in methocel solutions of 1.5 and 1.75%,no detectable changes
same,change in systemic cortisol levels,"[7]; vaginal administration, aqueous solution (FIG. 1a)",no detectable change
